Data on 14 compounds can be found in ChEMBL document CHEMBL1759901 (Bioorg Med Chem Lett, 2011).

The structures appear in SMILES notation. Calls of active or inactive are those of the source. No cut-off for these calls is given here. Where only a bound is given, the exact number is not on record here.

Data set [1] addresses T1, Nitric oxide synthase, inducible (Homo sapiens, UniProt P35228). Briefly: Inhibition of human recombinant iNOS.
Data set [2] has as its target Sodium-dependent noradrenaline transporter (Homo sapiens, UniProt P23975). Briefly: Inhibition of NET.
For data set [3], the target named is Sodium-dependent serotonin transporter (Homo sapiens, UniProt P31645). The experiment in a line: Inhibition of serotonin transporter.
Chain of Sodium-dependent serotonin transporter (P31645 whole entry): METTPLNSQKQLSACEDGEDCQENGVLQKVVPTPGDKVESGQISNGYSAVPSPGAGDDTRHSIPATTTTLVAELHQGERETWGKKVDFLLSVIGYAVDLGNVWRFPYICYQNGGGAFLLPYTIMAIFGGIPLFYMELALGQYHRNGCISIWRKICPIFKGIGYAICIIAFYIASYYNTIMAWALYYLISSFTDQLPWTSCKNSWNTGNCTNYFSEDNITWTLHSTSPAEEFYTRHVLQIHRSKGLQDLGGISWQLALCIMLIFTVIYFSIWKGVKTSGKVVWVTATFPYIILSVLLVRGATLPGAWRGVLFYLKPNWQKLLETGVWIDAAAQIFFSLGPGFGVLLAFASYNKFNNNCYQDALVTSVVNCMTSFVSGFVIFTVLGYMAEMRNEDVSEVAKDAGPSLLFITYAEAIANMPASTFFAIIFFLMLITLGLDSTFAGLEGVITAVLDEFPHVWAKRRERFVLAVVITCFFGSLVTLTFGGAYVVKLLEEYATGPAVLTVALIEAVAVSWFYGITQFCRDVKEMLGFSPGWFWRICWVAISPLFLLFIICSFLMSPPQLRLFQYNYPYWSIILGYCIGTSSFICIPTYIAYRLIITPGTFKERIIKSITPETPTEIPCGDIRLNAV
In data set [4] the target is Cytochrome P450 2D6 (Homo sapiens, UniProt P10635). Briefly: Inhibition of CYP2D6. The class given is ADME.
Chain of Cytochrome P450 2D6 (P10635 whole entry): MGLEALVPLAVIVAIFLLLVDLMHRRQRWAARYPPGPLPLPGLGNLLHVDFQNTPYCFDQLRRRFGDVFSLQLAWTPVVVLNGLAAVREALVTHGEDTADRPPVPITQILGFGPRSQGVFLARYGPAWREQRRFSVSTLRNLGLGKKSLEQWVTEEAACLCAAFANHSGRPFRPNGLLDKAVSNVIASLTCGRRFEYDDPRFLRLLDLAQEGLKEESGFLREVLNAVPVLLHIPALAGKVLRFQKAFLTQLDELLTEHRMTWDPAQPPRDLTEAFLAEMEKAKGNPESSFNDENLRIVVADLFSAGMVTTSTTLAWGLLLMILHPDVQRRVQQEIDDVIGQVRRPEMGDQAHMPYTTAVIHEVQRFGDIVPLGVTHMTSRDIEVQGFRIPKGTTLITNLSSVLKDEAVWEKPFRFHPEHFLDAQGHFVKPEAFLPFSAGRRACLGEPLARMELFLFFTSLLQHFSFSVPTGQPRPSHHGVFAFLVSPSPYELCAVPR
For data set [5], the target named is Voltage-gated inwardly rectifying potassium channel KCNH2 (Homo sapiens, UniProt Q12809). Briefly: Inhibition of human ERG.
Chain of Voltage-gated inwardly rectifying potassium channel KCNH2 (Q12809 whole entry): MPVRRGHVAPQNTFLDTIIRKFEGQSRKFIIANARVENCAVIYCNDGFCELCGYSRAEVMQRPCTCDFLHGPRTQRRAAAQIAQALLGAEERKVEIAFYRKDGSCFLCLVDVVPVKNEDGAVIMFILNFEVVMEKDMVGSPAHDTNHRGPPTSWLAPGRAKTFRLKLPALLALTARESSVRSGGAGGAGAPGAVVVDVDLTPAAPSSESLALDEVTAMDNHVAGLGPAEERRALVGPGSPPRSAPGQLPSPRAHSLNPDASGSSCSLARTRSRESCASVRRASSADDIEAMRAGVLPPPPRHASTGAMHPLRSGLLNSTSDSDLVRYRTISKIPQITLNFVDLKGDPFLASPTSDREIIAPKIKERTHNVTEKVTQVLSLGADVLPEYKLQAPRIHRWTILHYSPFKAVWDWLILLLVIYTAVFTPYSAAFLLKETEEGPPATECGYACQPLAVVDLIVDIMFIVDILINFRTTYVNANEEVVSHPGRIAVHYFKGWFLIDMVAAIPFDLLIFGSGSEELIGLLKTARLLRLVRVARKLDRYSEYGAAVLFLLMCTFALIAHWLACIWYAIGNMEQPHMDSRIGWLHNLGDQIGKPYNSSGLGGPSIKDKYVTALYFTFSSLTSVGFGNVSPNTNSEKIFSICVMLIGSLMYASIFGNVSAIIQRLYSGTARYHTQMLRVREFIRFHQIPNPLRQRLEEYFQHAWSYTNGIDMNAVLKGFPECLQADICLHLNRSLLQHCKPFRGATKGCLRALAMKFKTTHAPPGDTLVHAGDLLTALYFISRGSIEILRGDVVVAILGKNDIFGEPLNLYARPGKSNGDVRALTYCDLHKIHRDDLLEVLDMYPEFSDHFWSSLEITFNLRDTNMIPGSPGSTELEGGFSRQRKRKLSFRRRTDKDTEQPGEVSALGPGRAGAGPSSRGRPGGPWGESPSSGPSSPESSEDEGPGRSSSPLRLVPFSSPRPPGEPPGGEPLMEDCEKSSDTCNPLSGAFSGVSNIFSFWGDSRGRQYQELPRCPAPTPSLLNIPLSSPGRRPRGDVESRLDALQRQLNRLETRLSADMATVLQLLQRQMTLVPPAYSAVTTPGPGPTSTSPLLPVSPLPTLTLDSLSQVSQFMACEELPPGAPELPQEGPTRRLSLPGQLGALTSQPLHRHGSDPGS
The target in data set [6] is T1, Nitric oxide synthase, inducible. The experiment in a line: Inhibition of iNOS in intact human DLD1 cells assessed as nitric oxide production. The class given is cell-based, DLD-1.
The species entered for data set [7] is Homo sapiens. Briefly: Selectivity ratio of IC50 for human recombinant iNOS to IC50 for human recombinant eNOS.
In data set [8] the test system is Hepatocyte. The experiment in a line: Metabolic stability in human hepatocytes assessed as per 10^6 cells. Format: ADME, cell-based.
Data set [9] is described as follows: Metabolic stability in human microsomes assessed as per mg of tissue. Format: ADME, Microsome.
Data set [10] in a line: Clearance in iv dosed rat. Format: ADME, organism-based. The note with it: in vivo.
The nature of data set [11]: Volume of distribution at steady state in iv dosed rat. Format: ADME, organism-based. The settings on record: in vivo, read-out: Vdss.
Data set [12] can be described thus: Half life in iv dosed rat. The class given is ADME, organism-based. The settings on record: in vivo.
Data set [13] in a line: Oral bioavailability in rat. The class given is ADME, organism-based. The settings on record: in vivo.
A short description of data set [14]: Lipophilicity, log D of the compound. The class given is physicochemical. The settings on record: octanol/water.
Data set [15] deals with Hepatocyte. Briefly: Metabolic stability in rat hepatocytes assessed as per 10^6 cells. Format: ADME, cell-based.
For data set [16], the system named is Rattus norvegicus. The experiment in a line: Analgesic activity in Dark Agouti rat collagen-induced arthritis model at 75 umol/kg bid. Format: functional, organism-based.
Data set [17] has as its system Rattus norvegicus. The experiment in a line: Analgesic activity in Dark Agouti rat collagen-induced arthritis model assessed as reduction in inflammation at 75 umol/kg bid by histological analysis. Format: functional, organism-based.
Data set [18] deals with Rattus norvegicus. The experiment in a line: Analgesic activity in Dark Agouti rat collagen-induced arthritis model assessed as reduction in erosion scores at 75 umol/kg bid by histological analysis. Format: functional, organism-based.

T1 sequence (P35228 whole entry): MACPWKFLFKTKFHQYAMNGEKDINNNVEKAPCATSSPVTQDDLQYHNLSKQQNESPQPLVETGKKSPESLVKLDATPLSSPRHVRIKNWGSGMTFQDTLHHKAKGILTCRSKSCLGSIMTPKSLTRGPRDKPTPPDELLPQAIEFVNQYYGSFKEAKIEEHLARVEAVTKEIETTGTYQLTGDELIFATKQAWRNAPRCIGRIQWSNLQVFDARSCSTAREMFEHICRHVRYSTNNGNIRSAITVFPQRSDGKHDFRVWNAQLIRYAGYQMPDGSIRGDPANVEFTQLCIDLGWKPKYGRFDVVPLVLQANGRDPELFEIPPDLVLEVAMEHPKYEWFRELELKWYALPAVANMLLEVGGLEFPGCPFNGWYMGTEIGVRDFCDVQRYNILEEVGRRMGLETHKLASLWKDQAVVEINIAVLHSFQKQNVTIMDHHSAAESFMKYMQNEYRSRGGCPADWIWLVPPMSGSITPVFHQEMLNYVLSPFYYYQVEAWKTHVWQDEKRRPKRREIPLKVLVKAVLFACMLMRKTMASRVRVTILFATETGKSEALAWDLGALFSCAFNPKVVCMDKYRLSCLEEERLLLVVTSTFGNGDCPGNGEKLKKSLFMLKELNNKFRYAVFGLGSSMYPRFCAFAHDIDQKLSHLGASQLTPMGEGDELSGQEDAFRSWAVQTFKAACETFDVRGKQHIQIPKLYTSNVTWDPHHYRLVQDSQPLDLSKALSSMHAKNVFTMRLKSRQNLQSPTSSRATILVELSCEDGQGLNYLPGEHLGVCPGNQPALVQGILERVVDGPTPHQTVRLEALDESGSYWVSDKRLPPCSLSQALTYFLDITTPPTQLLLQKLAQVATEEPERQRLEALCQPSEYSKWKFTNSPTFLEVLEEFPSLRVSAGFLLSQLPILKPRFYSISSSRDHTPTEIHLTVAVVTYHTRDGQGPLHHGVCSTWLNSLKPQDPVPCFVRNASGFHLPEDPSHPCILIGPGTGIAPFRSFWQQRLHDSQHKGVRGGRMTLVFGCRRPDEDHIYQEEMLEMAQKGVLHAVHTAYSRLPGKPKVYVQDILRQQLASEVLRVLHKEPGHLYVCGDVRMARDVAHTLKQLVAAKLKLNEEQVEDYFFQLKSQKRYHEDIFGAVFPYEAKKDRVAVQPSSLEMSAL
Chain of Sodium-dependent noradrenaline transporter (P23975 whole entry): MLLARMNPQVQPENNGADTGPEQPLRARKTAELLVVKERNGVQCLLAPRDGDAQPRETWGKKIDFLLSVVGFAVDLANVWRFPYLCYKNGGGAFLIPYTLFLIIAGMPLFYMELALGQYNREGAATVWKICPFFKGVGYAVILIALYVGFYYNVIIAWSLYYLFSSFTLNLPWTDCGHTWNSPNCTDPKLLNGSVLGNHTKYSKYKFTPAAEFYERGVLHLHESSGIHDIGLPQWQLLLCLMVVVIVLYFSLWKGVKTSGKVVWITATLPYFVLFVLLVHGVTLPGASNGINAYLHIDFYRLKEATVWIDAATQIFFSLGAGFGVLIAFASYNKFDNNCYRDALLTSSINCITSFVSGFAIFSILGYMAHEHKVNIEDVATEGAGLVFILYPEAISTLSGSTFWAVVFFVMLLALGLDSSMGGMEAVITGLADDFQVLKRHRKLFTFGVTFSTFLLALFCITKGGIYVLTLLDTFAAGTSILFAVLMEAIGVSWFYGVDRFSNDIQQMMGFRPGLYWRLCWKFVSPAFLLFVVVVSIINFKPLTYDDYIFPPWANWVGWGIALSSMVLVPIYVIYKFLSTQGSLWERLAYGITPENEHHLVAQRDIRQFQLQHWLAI

By IC50 is commonly meant the concentration at which inhibition is half-maximal. With `N#Cc1ccc(Cl)cc1S[C@H](CCN)c1ccccc1.O=C(O)/C=C/C(=O)O`, the IC50 in data set [1] was 0.004 µM; in data set [2] (read-out: IC50) it was 17 µM; in data set [3] (read-out: IC50) it was 6.7 µM; in data set [4] (read-out: IC50) it was 4.1 µM; in data set [5], “Not Active”; in data set [6] (read-out: IC50) it was […].

Take `CNCC[C@@H](Oc1cc(Cl)ccc1Cl)c1ccccc1.O=C(O)/C=C/C(=O)O`: in [7], the Ratio IC50 is more than 4500. The IC50 in data set [1] was 0.022 µM; in data set [4], “Not Active”; in data set [5], “Not Active”; in data set [6] (read-out: IC50), 8.7 µM.

For the compound `Cc1ccnc(NCc2ccccc2)c1`, in data set [7], the Ratio IC50 was 12. Besides, the IC50 in data set [1] is 0.79 µM.

What is called clearance is the volume of plasma or blood freed of the substance per unit of time. Usually half-life stands for how long it takes for the measured level to halve. A lower half-life goes with fast loss. One may read the bioavailability as the share of a dose that reaches the circulation, judged against a reference dose that is usually intravenous. A low value points to poor availability. The term logD denotes lipophilicity at a set pH, counting ionised and neutral species. Read a low logD as a more hydrophilic compound. Take `N#Cc1ccc(C(=O)N2CCC3(CC2)N=C(N)c2c(F)ccc(F)c2N3)cn1`: the IC50 entry in data set [2] is “Not Active”; in data set [3] it was “Not Active”; in [4], “Not Active”; in data set [5] (read-out: IC50), 0.1 µM. Further, the Stability in data set [8] is less than 3 µL/min; in data set [9], “Unstable”; in [15], 5 µL/min. This compound also returned a clearance in data set [10] of 57 mL/min/kg. In data set [11], the Vd was determined as 4.5 L/kg. In data set [12], this compound showed a half-life of 1.1 h. The compound also had a bioavailability in [13] of 75%. The same compound displayed a logD in [14] of 0.79.

For the compound `NCC(Oc1cc(Cl)ccc1Cl)c1ccccc1` (stereo not drawn), the Ratio IC50 in data set [7] was more than 53. Further, the IC50 is 1.9 µM in [1]; “Not Active” in data set [2]; “Not Active” in data set [3]; “Not Active” in [4]; “Not Active” in [5]; “Not Active” in data set [6] (dld-1).

Regarding `N#Cc1ccc(C(F)(F)F)nc1O[C@H](CCN)c1ccno1.O=C(O)C(=O)O`, the IC50 was 0.0054 µM in data set [1]; more than 100 µM in data set [2] (read-out: IC50); 70 µM in data set [3] (read-out: IC50); more than 14 µM in [4] (read-out: IC50); more than 10 µM in data set [5] (read-out: IC50); 0.72 µM in data set [6] (read-out: IC50). Also, the Vd in data set [11] stood at 3.4 L/kg. This compound also had a bioavailability in data set [13] of 49%. In addition, the logD in data set [14] was -0.5.

`N#Cc1cc(F)c(Cl)cc1O[C@H](CCN)c1ccccc1.O=C(O)C(=O)O`: the Ratio IC50 in data set [7] was more than 10000. For the same compound, the IC50 in [1] is 0.006 µM; in data set [2] (read-out: IC50), 16 µM; in [3] (read-out: IC50), 4.4 µM; in data set [4] (read-out: IC50), 0.34 µM; in data set [5] (read-out: IC50), more than 10 µM; in [6] (read-out: IC50), 0.7 µM. In addition, the Stability in data set [8] was less than 1 µL/min; in [9], 6 µL/min; in data set [15], 8.9 µL/min. The clearance in data set [10] worked out at 49 mL/min/kg. Also, in [11], the Vd came out at 13 L/kg. The half-life in data set [12] was 4.3 h. Besides, in data set [13], the bioavailability was 57%. Besides, in data set [14], the logD came to 0.8. In addition, the outcome in [16], in data set [17] and in data set [18] was Active.

Take `CNCC[C@@H](Oc1cc(C(F)(F)F)ccc1C#N)c1ccccc1.Cl`: the Ratio IC50 in data set [7] is 1400. Further, the IC50 in data set [1] was 0.071 µM; in [2] (read-out: IC50), 28 µM; in data set [3] (read-out: IC50), 10 µM; in data set [4] (read-out: IC50) it was 1.6 µM; in data set [5] it was “Not Active”; in [6] (read-out: IC50), 2.7 µM. In addition, the logD in [14] was found to be 1.3.

In the case of `Cc1ccc(C#N)c(S[C@H](CCN)c2ccccc2)n1.O=C(O)/C=C/C(=O)O`, the Ratio IC50 in data set [7] is more than 10000. The IC50 is 0.004 µM in data set [1]; 7.4 µM in [2] (read-out: IC50); 2.6 µM in data set [3] (read-out: IC50); 5 µM in data set [4] (read-out: IC50); “Not Active” in data set [5]; 0.6 µM in [6] (read-out: IC50). The same compound displayed a logD in data set [14] of 0.7.

`CCC(CCNC)Oc1cc(Cl)ccc1C#N.Cl` (racemic): the Ratio IC50 in data set [7] came out at 170. Moreover, the IC50 was 0.051 µM in data set [1]; 7.1 µM in data set [2] (read-out: IC50); 44 µM in data set [3] (read-out: IC50); 0.4 µM in [4] (read-out: IC50); “Not Active” in data set [5]; 3.6 µM in data set [6] (read-out: IC50). Moreover, the logD in data set [14] came out at 0.4.

With `N#Cc1cc(Cl)ccc1O[C@H](CCN)c1ccccc1.O=C(O)/C=C/C(=O)O`, in data set [7], the Ratio IC50 came out at 100. Further, the IC50 in data set [1] is 0.96 µM; in data set [2], “Not Active”; in [3], “Not Active”; in data set [4], “Not Active”; in data set [5], “Not Active”; in data set [6] (dld-1), “Not Active”. The logD in [14] worked out at 0.9.

Regarding `N#Cc1ccc(Cl)cc1O[C@H](CCN)c1ccccc1.O=C(O)C(=O)O`, in [7], the Ratio IC50 is more than 10000. In addition, the IC50 is 0.004 µM in [1]; 15 µM in [2] (read-out: IC50); 2.1 µM in data set [3] (read-out: IC50); 0.4 µM in data set [4] (read-out: IC50); “Not Active” in [5]; 0.9 µM in [6] (read-out: IC50). Also, in data set [14], the logD was 0.8.

Turning to `CNCC[C@@H](Oc1cc(Cl)ccc1C#N)c1ccccc1.Cl`, the IC50 in data set [1] was found to be 0.009 µM; in [2] (read-out: IC50), 0.5 µM; in data set [3] (read-out: IC50), 4.5 µM; in [4] (read-out: IC50) it was 1 µM; in data set [6] (read-out: IC50), 0.7 µM. Besides, the Stability in [8] is 1.4 µL/min; in data set [9], 4 µL/min; in [15], 54 µL/min. Further, the clearance in data set [10] was determined as 94 mL/min/kg. Also, the Vd in [11] is 6.6 L/kg. The half-life in [12] was 1.3 h. The compound also displayed a logD in [14] of 1.7.

In the case of `CNCC[C@@H](Oc1cc(OC)ccc1C#N)c1ccccc1.O=C(O)C(=O)O`, the IC50 in data set [1] is 0.11 µM; in data set [2] (read-out: IC50), 12 µM; in data set [3] (read-out: IC50), 5.7 µM; in data set [4] (read-out: IC50), 0.3 µM; in data set [5], “Not Active”; in data set [6] (read-out: IC50) it was 9.5 µM. This compound also returned a logD in [14] of 0.9.
